Where two headings read alike, the source gives them in different places.
Target: T1, human enzyme NAMPT (full length) (Homo sapiens, UniProt P43490)
T1 construct: human enzyme NAMPT (full length)
Assay: NMN fluorescence biochemical assay (stimulation of NMN synthesis by NAMPT)
Settings: for EC50: concentration giving half-maximal activation, read-out: Enzymatic EC50; for Enzymatic Emax: fold change of maximal activation compared to DMSO
Protocol: Certain compounds described herein were assayed for their ability to stimulate the synthesis of nicotinamide mononucleotide (NMN) by human enzyme NAMPT (full length). The enzymatic assay was performed in a 384-well plate using a TMD buffer (50 mM Tris-HCl, 10 mM MgCl2, 2 mM DTT, pH 7.5). Purified NAMPT (100 nM) was pre-incubated with 0.2 μL. DMSO solution of the test compound (with a series of concentrations) in 10 μL TMD buffer for 15 min at 37° C. The reaction was initiated by adding 10 μL solution of NAM (50 μM), PRPP (100 μM), and ATP (4 mM) in TMD buffer. After 1 h of incubation at 37 T, an aliquot (20 μL) of the NMN-containing sample was sequentially mixed with 5 μL of 20% acetophenone (in DMSO) and 5 μL of 2M KOH. The mixture was placed on ice for 10 min. Next, 22.5 μL of 100% formic acid was added to each sample, vortexed, and then incubated at 37° C. for 20 min. Fluorescence (Ex/Em=382/445 nm) was measured using an Envision plate reader. The potency measurements for the test compounds were quantified and represented as EC50 (concentration of a compound that gives half-maximal activation) and Emax (fold change of a compound's maximal activation compared to DMSO).

[1] = NMN fluorescence assay, purified human NAMPT 100 nM
[2] = NMN synthesis by purified human NAMPT (100 nM)

T1 sequence (P43490 whole entry): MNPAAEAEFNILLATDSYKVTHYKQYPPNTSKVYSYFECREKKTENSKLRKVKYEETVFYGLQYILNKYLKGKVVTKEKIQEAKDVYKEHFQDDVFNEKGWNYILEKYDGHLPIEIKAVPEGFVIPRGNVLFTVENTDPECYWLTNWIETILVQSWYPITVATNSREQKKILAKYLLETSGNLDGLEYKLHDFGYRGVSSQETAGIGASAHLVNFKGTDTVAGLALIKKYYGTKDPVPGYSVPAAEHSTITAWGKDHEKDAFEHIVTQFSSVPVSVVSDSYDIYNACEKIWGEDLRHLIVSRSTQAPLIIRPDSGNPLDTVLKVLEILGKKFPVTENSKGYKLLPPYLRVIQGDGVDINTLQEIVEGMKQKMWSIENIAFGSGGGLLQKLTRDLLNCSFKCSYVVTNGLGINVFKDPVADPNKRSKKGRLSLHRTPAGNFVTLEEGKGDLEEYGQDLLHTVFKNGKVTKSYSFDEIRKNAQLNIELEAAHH

| SMILES | EC50 [1] [µM] | Enzymatic Emax | EC50 [2] [µM] |
| --- | --- | --- | --- |
| O=C1c2ccccc2C(Cc2ncccc2Br)N1Cc1ccc2[nH]cnc2c1 (centres unmarked) [Compound 268, 2-((1H-benzo[d]imidazol-5-yl)methyl)-3-((3-bromopyridin-2-yl)methyl)isoindolin-1-one] | – | A (A>3) | 0.5 to 5 |
| O=C1c2ccccc2CCN1Cc1ccc2[nH]c(=O)oc2c1 [Compound 8, 6-((1-oxo-3,4-dihydroisoquinolin-2(1H)-yl)methyl)benzo[d]oxazol-2(3H)-one] | – | B (3≥B>2) | ≥ 5 |
| COc1cccc(CC2c3ccccc3C(=O)N2Cc2ccc3[nH]c(=O)oc3c2)c1 (centres unmarked) [Compound 180, 6-((1-(3-methoxybenzyl)-3-oxoisoindolin-2-yl)methyl)benzo[d]oxazol-2(3H)-one] | – | B (3≥B>2) | 0.5 to 5 |
| COc1c(F)cc(CN2C(=O)c3ccccc3C2Cc2c(Cl)cnn2C)cc1F (centres unmarked) [Compound 560, 3-((4-chloro-1-methyl-1H-pyrazol-5-yl)methyl)-2-(3,5-difluoro-4-methoxybenzyl)isoindolin-1-one] | ≥ 5 | B (3≥B>2) | – |
| Cn1ncc(Cl)c1CC1c2ccccc2C(=O)N1Cc1ccc2[nH]c(=S)oc2c1 (centres unmarked) [Compound 626, 3-((4-chloro-1-methyl-1H-pyrazol-5-yl)methyl)-2-((2-thioxo-2,3-dihydrobenzo[d]oxazol-6-yl)methyl)isoindolin-1-one] | ≥ 5 | – | – |
| Cc1cc(Cl)n(CC2c3ccccc3C(=O)N2Cc2ccc3[nH]nnc3c2)n1 (centres unmarked) [Compound 355, 2-((1H-benzo[d][1,2,3]triazol-5-yl)methyl)-3-((5-chloro-3-methyl-1H-pyrazol-1-yl)methyl)isoindolin-1-one] | ≥ 5 | A (A>3) | – |
| O=C1c2ccccc2C(COc2cccc(Cl)n2)N1Cc1ccc2[nH]c(=O)oc2c1 (centres unmarked) [Compound 260, 6-((1-(((6-chloropyridin-2-yl)oxy)methyl)-3-oxoisoindolin-2-yl)methyl)benzo[d]oxazol-2(3H)-one] | – | B (3≥B>2) | 0.5 to 5 |
| Cn1ncc(Cl)c1CC1c2ccccc2C(=O)N1Cc1ccc(OC(F)F)cc1 (centres unmarked) [Compound 528, 3-((4-chloro-1-methyl-1H-pyrazol-5-yl)methyl)-2-(4-(difluoromethoxy)benzyl)isoindolin-1-one] | ≥ 5 | C (2≥C) | – |
| NC(=O)c1cnc(CN2C(=O)c3ccccc3C2Cc2ncccc2Br)s1 (centres unmarked) [Compound 280, 2-((1-((3-bromopyridin-2-yl)methyl)-3-oxoisoindolin-2-yl)methyl)thiazole-5-carboxamide] | – | B (3≥B>2) | ≥ 5 |
| CC(C)(C)c1ccc2c(c1)C(=O)N(Cc1ccc(O)cc1)C2=O [Compound 18, 5-(tert-butyl)-2-(4-hydroxybenzyl)isoindoline-1,3-dione] | – | B (3≥B>2) | 0.5 to 5 |
| O=C1c2ccccc2C(C(F)(F)c2ccccc2)N1Cc1ccc2[nH]c(=O)oc2c1 (centres unmarked) [Compound 306, 6-((1-(difluoro(phenyl)methyl)-3-oxoisoindolin-2-yl)methyl)benzo[d]oxazol-2(3H)-one] | – | C (2≥C) | ≥ 5 |
| CN(C)c1ccc2c(c1)C(=O)N(Cc1ccc(O)cc1)C2 [Compound 305, 6-(dimethylamino)-2-(4-hydroxybenzyl) isoindolin-1-one] | – | C (2≥C) | ≥ 5 |
| O=C1c2ccccc2C(Cc2ncccc2Br)N1Cc1cnc2[nH]c(=O)oc2c1 (centres unmarked) [Compound 222, 6-((1-((3-bromopyridin-2-yl)methyl)-3-oxoisoindolin-2-yl)methyl)oxazolo[4,5-b]pyridin-2(3H)-one] | – | B (3≥B>2) | ≥ 5 |
| O=C1c2cccc(Nc3ccccc3)c2C(=O)N1Cc1ccc(O)cc1 [Compound 17, 2-(4-hydroxybenzyl)-4-(phenylamino)isoindoline-1,3-dione] | – | B (3≥B>2) | 0.5 to 5 |
| O=C1c2ccccc2C(CC2CCOCC2)N1Cc1ccc2[nH]c(=O)oc2c1 (centres unmarked) [Compound 226, 6-((1-oxo-3-((tetrahydro-2H-pyran-4-yl)methyl)isoindolin-2-yl)methyl)benzo[d]oxazol-2(3H)-one] | – | B (3≥B>2) | ≥ 5 |
| Nc1nnc2cc(CN3C(=O)c4ccccc4C3Cc3ncccc3Br)ccn12 (centres unmarked) [Compound 269, 2-((3-amino-[1,2,4]triazolo[4,3-a]pyridin-7-yl)methyl)-3-((3-bromopyridin-2-yl)methyl) isoindolin-1-one] | – | B (3≥B>2) | ≥ 5 |
| O=C1c2ccccc2C(Cc2ncccc2Br)N1Cc1ccc2[nH]c(O)nc2c1 (centres unmarked) [Compound 367, 3-((3-bromopyridin-2-yl)methyl)-2-((2-hydroxy-1H-benzo[d]imidazol-5-yl)methyl)isoindolin-1-one] | ≥ 5 | C (2≥C) | – |
| Cn1ncc(Cl)c1CC1c2ccccc2C(=O)N1CCc1ccc(=O)[nH]c1 (centres unmarked) [Compound 636, 3-((4-chloro-1-methyl-1H-pyrazol-5-yl)methyl)-2-(2-(6-oxo-1,6-dihydropyridin-3-yl)ethyl)isoindolin-1-one] | ≥ 5 | C (2≥C) | – |
| O=C1c2ccccc2C(Cc2ncccc2Br)N1Cc1ncc(O)cn1 (centres unmarked) [Compound 505, 3-((3-bromopyridin-2-yl)methyl)-2-((5-hydroxypyrimidin-2-yl)methyl)isoindolin-1-one] | ≥ 5 | C (2≥C) | – |

Results, then the molecule that gave them:

| EC50 [1] [µM] | Enzymatic Emax | EC50 [2] [µM] | SMILES |
| --- | --- | --- | --- |
| 0.5 to 5 | B (3≥B>2) | – | [2H]C([2H])(C1CC2(CNC(=O)O2)C1)N1C(=O)c2ccccc2C1Cc1c(Cl)cnn1C (centres unmarked) [Compound 643, 2-((1-((4-chloro-1-methyl-1H-pyrazol-5-yl)methyl)-3-oxoisoindolin-2-yl)methyl-d)-5-oxa-7-azaspiro[3.4]octan-6-one] |
| – | C (2≥C) | ≥ 5 | Cn1ncc(Cl)c1C[C@@H]1c2ccccc2C(=O)N1C/C=C/c1c[nH]nn1 [Compound 313, (R,E)-2-(3-(1H-1,2,3-triazol-4-yl)allyl)-3-((4-chloro-1-methyl-1H-pyrazol-5-yl)methyl)isoindolin-1-one] |
| 0.5 to 5 | B (3≥B>2) | – | O=C1c2ccccc2C(Cc2ncccc2Br)N1CC1CC2(CC(O)C2)C1 (centres unmarked) [Compound 321, 3-((3-bromopyridin-2-yl)methyl)-2-((6-hydroxyspiro[3.3]heptan-2-yl)methyl) isoindolin-1-one] |
| ≥ 5 | C (2≥C) | – | Cn1ncc(Cl)c1CC1c2ccccc2C(=O)N1CC1CC2(C1)OC(=O)NC2=O (centres unmarked) [Compound 587, 2-((1-((4-chloro-1-methyl-1H-pyrazol-5-yl)methyl)-3-oxoisoindolin-2-yl)methyl)-5-oxa-7-azaspiro[3.4]octane-6,8-dione] |
| ≥ 5 | C (2≥C) | – | Cn1ncc(Cl)c1CC1c2ccccc2C(=O)N1CC1CCc2[nH]nnc21 (centres unmarked) [Compound 457, 3-((4-chloro-1-methyl-1H-pyrazol-5-yl)methyl)-2-((1,4,5,6-tetrahydrocyclopenta[d][1,2,3]triazol-4-yl)methyl)isoindolin-1-one] |
| 0.5 to 5 | C (2≥C) | – | Cn1ncc(Cl)c1CC1c2ccccc2C(=O)N1CC#Cc1c[nH]cn1 (centres unmarked) [Compound 452, 2-(3-(1H-imidazol-4-yl)prop-2-yn-1-yl)-3-((4-chloro-1-methyl-1H-pyrazol-5-yl)methyl)insoindolin-1-one] |
| ≥ 5 | C (2≥C) | – | Cn1ncc(Cl)c1CC1c2ccccc2C(=O)N1CC1CC2(CN=C(NC#N)O2)C1 (centres unmarked) [Compound 520, N-(2-((1-((4-chloro-1-methyl-1H-pyrazol-5-yl)methyl)-3-oxoisoindolin-2-yl)methyl)-5-oxa-7-azaspiro[3.4]oct-6-en-6-yl)cyanamide] |
| 0.5 to 5 | C (2≥C) | – | Cn1nc(Cl)c(Cl)c1CC1c2ccccc2C(=O)N1C[C@H]1C[C@@]2(CNC(=O)O2)C1 (some centres unmarked) [Compound 500, (2r,4r)-2-((1-((3,4-dichloro-1-methyl-1H-pyrazol-5-yl)methyl)-3-oxoisoindolin-2-yl)methyl)-5-oxa-7-azaspiro[3.4]octan-6-one] |
| – | A (A>3) | < 0.5 | Cn1ncc(Cl)c1CC1c2ccccc2C(=O)N1Cc1ccc2[nH]c(=O)oc2c1 (centres unmarked) [Compound 251, 6-((1-((4-chloro-1-methyl-1H-pyrazol-5-yl)methyl)-3-oxoisoindolin-2-yl)methyl)benzo[d]oxazol-2(3H)-one] |
| < 0.5 | B (3≥B>2) | – | Cn1ncc(Cl)c1CC1c2cc(F)cc(F)c2C(=O)N1CC1CC2(CNC(=O)O2)C1 (centres unmarked) [Compound 496, 2-((1-((4-chloro-1-methyl-1H-pyrazol-5-yl)methyl)-4,6-difluoro-3-oxoisoindolin-2-yl)methyl)-5-oxa-7-azaspiro[3.4]octan-6-one] |
| 0.5 to 5 | B (3≥B>2) | – | CC(=O)c1ccc(CN2C(=O)c3ccccc3C2Cc2c(Cl)cnn2C)cc1 (centres unmarked) [Compound 584, 2-(4-acetylbenzyl)-3-((4-chloro-1-methyl-1H-pyrazol-5-yl)methyl)isoindolin-1-one] |

Source: patent US20260078130A1, “NAMPT MODULATORS, PREPARATIONS, AND USES THEREOF” (SIRONAX LTD., priority 2022, published 2026)
